Data reported in the supplement of paper PMC10307832.

What was measured:
Assay in all cases: relative viability (nuclei count vs DMSO), 5 days (fraction); higher = more cells survive
XMD13-2 + Lapatinib = compound: C1CC1C(=O)NC2=NNC3=C2C=CC(=C3)C4=CC(=CC=C4)C(=O)NC5CC5 [XMD13-2] + CS(=O)(=O)CCNCc1ccc(-c2ccc3ncnc(Nc4ccc(OCc5cccc(F)c5)c(Cl)c4)c3c2)o1 [Lapatinib] (partner 2 µM)
Method in brief: (§1)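 Lung cancer cell lines were pin-tool dosed in 1536-well plates on the day after seeding, with either a lone drug or a fixed anchor-drug dose plus five library-drug doses (not always all listed) in √10 steps. Nuclei were counted on 4× images after 5 days. Relative viability is the ratio of treated-well to vehicle-well nuclei counts, with each value a median of duplicate plates.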

Dasatinib + Phenformin = compound: Cc1nc(Nc2ncc(C(=O)Nc3c(C)cccc3Cl)s2)cc(N2CCN(CCO)CC2)n1 [Dasatinib] + N=C(N)NC(=N)NCCc1ccccc1 [Phenformin] (partner 250 µM)
Method in brief: as §1

XMD13-2 + Olaparib = compound: C1CC1C(=O)NC2=NNC3=C2C=CC(=C3)C4=CC(=CC=C4)C(=O)NC5CC5 [XMD13-2] + O=C(c1cc(Cc2n[nH]c(=O)c3ccccc23)ccc1F)N1CCN(C(=O)C2CC2)CC1 [Olaparib] (partner 8 µM)
Method in brief: as §1

ALW-II-49-7 + Lapatinib = compound: Cc1ccc(C(=O)Nc2cccc(C(F)(F)F)c2)cc1Nc1cncc(C(N)=O)c1 [ALW-II-49-7] + CS(=O)(=O)CCNCc1ccc(-c2ccc3ncnc(Nc4ccc(OCc5cccc(F)c5)c(Cl)c4)c3c2)o1 [Lapatinib] (partner 2 µM)
Method in brief: as §1

Question: For LCLC-97TM1, which relative viability (XMD13-2 + Lapatinib; first compound 0.05 µM) is on record?
Answer: 1.19

Question: What about the relative viability (XMD13-2 + Lapatinib; first compound 0.1581 µM) of the same cell line?
Answer: 0.693

Question: What about the relative viability (XMD13-2 + Lapatinib; first compound 0.5 µM) of the same cell line?
Answer: 1.23

Question: And the relative viability (XMD13-2 + Lapatinib; first compound 1.581 µM)?
Answer: 0.75

Question: What about the relative viability (XMD13-2 + Lapatinib; first compound 5 µM) of the same cell line?
Answer: 0.825

Question: And the relative viability (Dasatinib + Phenformin; first compound 0.005 µM)?
Answer: 0.451

Question: And the relative viability (Dasatinib + Phenformin; first compound 0.01581 µM)?
Answer: 0.439

Question: And the relative viability (Dasatinib + Phenformin; first compound 0.05 µM)?
Answer: 0.45

Question: What about the relative viability (Dasatinib + Phenformin; first compound 0.1581 µM) of the same cell line?
Answer: 0.449

Question: And the relative viability (Dasatinib + Phenformin; first compound 0.5 µM)?
Answer: 0.168

Question: And the relative viability (XMD13-2 + Olaparib; first compound 0.05 µM)?
Answer: 0.498

Question: And the relative viability (XMD13-2 + Olaparib; first compound 0.1581 µM)?
Answer: 0.507

Question: And the relative viability (XMD13-2 + Olaparib; first compound 0.5 µM)?
Answer: 0.336

Question: And the relative viability (XMD13-2 + Olaparib; first compound 1.581 µM)?
Answer: 0.263

Question: What about the relative viability (XMD13-2 + Olaparib; first compound 5 µM) of the same cell line?
Answer: 0.173

Question: And the relative viability (ALW-II-49-7 + Lapatinib; first compound 0.08 µM)?
Answer: 1.03

Question: What about the relative viability (ALW-II-49-7 + Lapatinib; first compound 0.253 µM) of the same cell line?
Answer: 1.06

Question: And the relative viability (ALW-II-49-7 + Lapatinib; first compound 0.8 µM)?
Answer: 1.06

Question: What about the relative viability (ALW-II-49-7 + Lapatinib; first compound 2.53 µM) of the same cell line?
Answer: 0.842

Question: What about the relative viability (ALW-II-49-7 + Lapatinib; first compound 8 µM) of the same cell line?
Answer: 1.01

Question: For NCI-H520, which relative viability (XMD13-2 + Lapatinib; first compound 0.05 µM) is on record?
Answer: 1.06

Question: What about the relative viability (XMD13-2 + Lapatinib; first compound 0.1581 µM) of the same cell line?
Answer: 0.923

Question: What about the relative viability (XMD13-2 + Lapatinib; first compound 0.5 µM) of the same cell line?
Answer: 0.924

Question: And the relative viability (XMD13-2 + Lapatinib; first compound 1.581 µM)?
Answer: 0.717

Question: And the relative viability (XMD13-2 + Lapatinib; first compound 5 µM)?
Answer: 0.354

Question: What about the relative viability (Dasatinib + Phenformin; first compound 0.005 µM) of the same cell line?
Answer: 0.481

Question: What about the relative viability (Dasatinib + Phenformin; first compound 0.01581 µM) of the same cell line?
Answer: 0.339

Question: What about the relative viability (Dasatinib + Phenformin; first compound 0.05 µM) of the same cell line?
Answer: 0.255

Question: And the relative viability (Dasatinib + Phenformin; first compound 0.1581 µM)?
Answer: 0.181

Question: What about the relative viability (Dasatinib + Phenformin; first compound 0.5 µM) of the same cell line?
Answer: 0.179

Question: What about the relative viability (XMD13-2 + Olaparib; first compound 0.05 µM) of the same cell line?
Answer: 0.333

Question: What about the relative viability (XMD13-2 + Olaparib; first compound 0.1581 µM) of the same cell line?
Answer: 0.325

Question: What about the relative viability (XMD13-2 + Olaparib; first compound 0.5 µM) of the same cell line?
Answer: 0.498

Question: What about the relative viability (XMD13-2 + Olaparib; first compound 1.581 µM) of the same cell line?
Answer: 0.36

Question: What about the relative viability (XMD13-2 + Olaparib; first compound 5 µM) of the same cell line?
Answer: 0.307

Question: What about the relative viability (ALW-II-49-7 + Lapatinib; first compound 0.08 µM) of the same cell line?
Answer: 0.666

Question: And the relative viability (ALW-II-49-7 + Lapatinib; first compound 0.253 µM)?
Answer: 0.544

Question: What about the relative viability (ALW-II-49-7 + Lapatinib; first compound 2.53 µM) of the same cell line?
Answer: 0.627

Question: What about the relative viability (ALW-II-49-7 + Lapatinib; first compound 8 µM) of the same cell line?
Answer: 0.846

Question: What does the source list for NCI-H1993?
Answer: relative viability (XMD13-2 + Lapatinib; first compound 0.05 µM): 0.904; relative viability (XMD13-2 + Lapatinib; first compound 0.1581 µM): 0.87; relative viability (XMD13-2 + Lapatinib; first compound 0.5 µM): 0.931; relative viability (XMD13-2 + Lapatinib; first compound 1.581 µM): 0.765; relative viability (XMD13-2 + Lapatinib; first compound 5 µM): 0.706; relative viability (Dasatinib + Phenformin; first compound 0.005 µM): 0.416; relative viability (Dasatinib + Phenformin; first compound 0.01581 µM): 0.487; relative viability (Dasatinib + Phenformin; first compound 0.05 µM): 0.473; relative viability (Dasatinib + Phenformin; first compound 0.1581 µM): 0.525; relative viability (Dasatinib + Phenformin; first compound 0.5 µM): 0.554; relative viability (XMD13-2 + Olaparib; first compound 0.05 µM): 1.1; relative viability (XMD13-2 + Olaparib; first compound 0.1581 µM): 0.924; relative viability (XMD13-2 + Olaparib; first compound 0.5 µM): 0.507; relative viability (XMD13-2 + Olaparib; first compound 1.581 µM): 0.813; relative viability (XMD13-2 + Olaparib; first compound 5 µM): 0.952; relative viability (ALW-II-49-7 + Lapatinib; first compound 0.08 µM): 0.663; relative viability (ALW-II-49-7 + Lapatinib; first compound 0.253 µM): 0.811; relative viability (ALW-II-49-7 + Lapatinib; first compound 0.8 µM): 0.863; relative viability (ALW-II-49-7 + Lapatinib; first compound 2.53 µM): 0.825; relative viability (ALW-II-49-7 + Lapatinib; first compound 8 µM): 0.695

Question: What does the source list for NCI-H1437?
Answer: relative viability (XMD13-2 + Lapatinib; first compound 0.05 µM): 0.911; relative viability (XMD13-2 + Lapatinib; first compound 0.1581 µM): 0.849; relative viability (XMD13-2 + Lapatinib; first compound 0.5 µM): 0.858; relative viability (XMD13-2 + Lapatinib; first compound 1.581 µM): 0.793; relative viability (XMD13-2 + Lapatinib; first compound 5 µM): 0.683; relative viability (Dasatinib + Phenformin; first compound 0.005 µM): 0.322; relative viability (Dasatinib + Phenformin; first compound 0.01581 µM): 0.207; relative viability (Dasatinib + Phenformin; first compound 0.05 µM): 0.261; relative viability (Dasatinib + Phenformin; first compound 0.1581 µM): 0.222; relative viability (Dasatinib + Phenformin; first compound 0.5 µM): 0.148; relative viability (XMD13-2 + Olaparib; first compound 0.05 µM): 0.61; relative viability (XMD13-2 + Olaparib; first compound 0.1581 µM): 0.617; relative viability (XMD13-2 + Olaparib; first compound 0.5 µM): 0.64; relative viability (XMD13-2 + Olaparib; first compound 1.581 µM): 0.64; relative viability (XMD13-2 + Olaparib; first compound 5 µM): 0.634; relative viability (ALW-II-49-7 + Lapatinib; first compound 0.08 µM): 0.786; relative viability (ALW-II-49-7 + Lapatinib; first compound 0.253 µM): 0.731; relative viability (ALW-II-49-7 + Lapatinib; first compound 2.53 µM): 0.786; relative viability (ALW-II-49-7 + Lapatinib; first compound 8 µM): 0.749
